Experiments:
[1] = Pharmacokinetics of vaginal pullulan capsules with 12 mg CDB-4124 in women with uterine fibroids, compared with oral doses; assay type: in vivo, human
Description: (§1) Capsugel NPcaps® were filled with the excipient fill formulations described above with 12 mg CDB-4124 (telapristone acetate) and administered vaginally to human females with uterine fibroids once per day for a period of 2 weeks to determine the length of time required to reach steady state and overall systemic exposure of the parent compound (CDB-4124) and the primary metabolite (CDB-4453). The capsules were administered using a commercially available vaginal applicator modified by reversing the insert (see FIG. 5). The unmodified applicator comprises a barrel and plunger with the barrel having a relatively wide opening on one end and a relatively narrow opening on the other end. The applicator is designed such that the drug is placed in the end with the larger diameter opening (entrance end), the applicator is inserted into the vagina and the plunger is used to push the drug out the barrel and into the vagina. For insertion of the filled NPcaps, the shell end of the capsule (having a […] diameter) was placed into the narrow opening in the barrel, leaving the cap exposed. […] Pharmacokinetic data was then obtained from patients.

[2] = test system: uterine fibroids; assay: Previous oral studies of CDB-4124 (menses, fibroid size, symptoms); assay type: in vivo, human
Description: (§2) In a previous oral study, doses of 1, 3, 6, 9 and 12 mg of CDB-4124 were administered for a period of 10 weeks. […] Cessation of menses directly correlates to efficacy of an oral dose in both uterine fibroids and endometriosis. […] Given the overall low exposure of the 12 mg dose, in those women that continued to menstruate, further improvements in reduction of symptoms are expected with longer exposure to the drug. In efficacy studies in which CDB-4124 was administered orally, women experienced a nearly 50% reduction in mean fibroid size at a 25 mg dose. When those women were then escalated to a 50 mg oral dose for an additional four months, fibroid size was reduced to approximately 25% of the initial volume. […] It is expected that vaginal delivery of CDB-4124 at the 12 mg dose will have greater activity than the oral 50 mg dose despite a maximum exposure 1/100th of the 50 mg oral dose. Even with this low exposure after only 4 weeks of treatment, significant improvements in fibroid related condition have been observed.

[3] = test system: vaginal mucous membrane; assay: Cumulative vaginal mucous membrane irritancy in rabbits; assay type: in vivo, New Zealand White rabbits; settings: rabbit
Description: Pullulan capsules (Capsugel NPcaps®, size 0) comprising CDB-4124 were administered once daily for 10 consecutive days intravaginally to 10 healthy virgin female New Zealand White rabbits in order to determine the cumulative vaginal mucous membrane irritancy potential and to obtain plasma samples for pharmacokinetic analysis. Five rabbits were assigned to each of two groups, the first dosed with vehicle control (pullulan capsules with 0.5 ml PEG 1000 fill) introduced into the upper vaginal vault of each rabbit using a syringe applicator (Group 1), the second with CDB-4124 (pullulan capsules with 12 mg CDB-4124 in 0.5 ml PEG 1000) (Group 2). The external vaginal mucosa of each animal was examined for erythema, edema and discharge prior to the initial dose, immediately prior to each treatment and prior to sacrifice. All animals were examined for gross pathology.

[4] = test system: human females with uterine fibroids; assay: Efficacy of vaginal 12 mg CDB-4124 in women with uterine fibroids (menses, PBAC, UFSQOL); assay type: in vivo
Description: as §1
as §2, with “Even with this low exposure after only 4 weeks of treatment, significant improvements in fibroid related condition have been observed.” left out

[5] = 12 mg CDB-4124 vaginally daily for 10 days
[6] = 12 mg vaginal, pair-wise comparison of 6 women

COCC(=O)[C@@]1(OC(C)=O)CC[C@H]2[C@@H]3CCC4=CC(=O)CCC4=C3[C@@H](c3ccc(N(C)C)cc3)C[C@@]21C [CDB-4124, 21-methoxy-17α-acetoxy-11β-(4 N,N-dimethylaminophenyl)-19-norpregna-4,9-diene-3,20-dione]
maximum exposure relative to the 50 mg oral dose ([1]; 12 mg vaginal dose): 1/100 | Cmax compared with oral doses ([1]; 12 mg vaginal versus 1, 3, 6, 9, 12 mg oral, FIG. 2): lower than any of the oral doses | time to steady state concentration ([1]; women with uterine fibroids, 12 mg vaginal pullulan capsule once per day): within one week | systemic exposure (AUC) relative to an equivalent oral dose ([1]; women with uterine fibroids, 12 mg vaginal versus oral, FIG. 1): about ⅙ | fibroid size as % of the initial volume ([2]; escalated to 50 mg oral for an additional four months): approximately 25% | efficacy of 1 mg oral dose ([2]; oral 1 mg): ineffective | reduction in mean fibroid size ([2]; oral 25 mg dose): ~50% | tolerability ([2]; oral 1, 3, 6, 9 and 12 mg for 10 weeks): all doses were well tolerated | fibroid symptoms scored by UFSQOL ([2]; oral CDB-4124): in general, symptom free | lowest dose inducing reliable cessation of menses ([2]; oral, 10 weeks): 3 mg | gross findings in ovaries, uterus, vagina [3, 5]: No gross findings | histopathological findings [3, 5]: nor were any histopathological findings observed | external vaginal mucosa (erythema, edema) ([3]; 12 mg CDB-4124 vaginally daily for 10 days, 2/5 rabbits on 4 occasions, otherwise normal): very slight erythema and/or edema | irritation index ([3]; pullulan capsules, 12 mg CDB-4124 in 0.5 ml PEG 1000, vaginally daily for 10 days): none | cessation of menses (number of women) ([4]; 12 mg vaginal dose, 6 women compared): 3 | statistical significance (p) of reduction in menstrual bleeding, Pictorial Blood Loss Assessment Chart (PBAC) [4, 6]: < 0.05 | statistical significance (p) of reduction in overall uterine fibroid symptoms, UFSQOL [4, 6]: < 0.05

Source: patent US10064815B2, “Formulations and methods for vaginal delivery of antiprogestins” (REPROS THERAPEUTICS INC., priority 2014, dated 2018)
